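Grown in 96-well plates, cells were treated for 48 hours with each compound at five concentrations. Insufficient inhibition: endpoint recorded as highest concentration tested. GI50: concentration for 50% inhibition of growth. The concentration for full growth arrest is given as TGI.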
Tests used:
Experiment in all cases: NCI-60 cell line screen, 48 h
SF-295 CNS = system: SF-295 CNS
NCI-H226 lung = system: NCI-H226 lung
BT-549 breast = system: BT-549 breast
NCI-H460 lung = system: NCI-H460 lung
DU-145 prostate = system: DU-145 prostate
HOP-62 NSCLC = system: HOP-62 NSCLC
UACC-257 melanoma = system: UACC-257 melanoma
OVCAR-4 ovarian = system: OVCAR-4 ovarian
A549 NSCLC = system: A549 NSCLC
HT29 colon = system: HT29 colon
T-47D breast = system: T-47D breast
SK-MEL-2 melanoma = system: SK-MEL-2 melanoma
MDA-MB-435 = system: MDA-MB-435
NCI-H23 lung = system: NCI-H23 lung
RXF 393 renal = system: RXF 393 renal
SW-620 colon = system: SW-620 colon
HOP-92 NSCLC = system: HOP-92 NSCLC
OVCAR-3 ovarian = system: OVCAR-3 ovarian
786-0 renal = system: 786-0 renal
TK-10 renal = system: TK-10 renal
HS 578T breast = system: HS 578T breast
SF-268 CNS = system: SF-268 CNS
HCT-15 colon = system: HCT-15 colon
SK-OV-3 ovarian = system: SK-OV-3 ovarian
OVCAR-5 ovarian = system: OVCAR-5 ovarian
HCC-2998 colon = system: HCC-2998 colon
A498 renal = system: A498 renal
UO-31 renal = system: UO-31 renal
KM12 colon = system: KM12 colon
CAKI-1 renal = system: CAKI-1 renal
M14 melanoma = system: M14 melanoma
SN12C renal = system: SN12C renal
COLO 205 colon = system: COLO 205 colon
IGROV1 ovarian = system: IGROV1 ovarian
ACHN renal = system: ACHN renal
RPMI-8226 leukemia = system: RPMI-8226 leukemia
HCT-116 colon = system: HCT-116 colon
SF-539 CNS = system: SF-539 CNS
MCF7 breast = system: MCF7 breast
CCRF-CEM leukemia = system: CCRF-CEM leukemia
PC-3 prostate = system: PC-3 prostate
K-562 leukemia = system: K-562 leukemia
SK-MEL-28 melanoma = system: SK-MEL-28 melanoma
UACC-62 melanoma = system: UACC-62 melanoma
OVCAR-8 ovarian = system: OVCAR-8 ovarian
U251 CNS = system: U251 CNS
EKVX NSCLC = system: EKVX NSCLC
MDA-MB-231 breast = system: MDA-MB-231 breast
HL-60(TB) leukemia = system: HL-60(TB) leukemia
NCI/ADR-RES ovarian = system: NCI/ADR-RES ovarian
SNB-75 CNS = system: SNB-75 CNS
NCI-H522 lung = system: NCI-H522 lung
LOX IMVI melanoma = system: LOX IMVI melanoma
MALME-3M melanoma = system: MALME-3M melanoma
SNB-19 CNS = system: SNB-19 CNS
SK-MEL-5 melanoma = system: SK-MEL-5 melanoma

## Cn1cc(-c2csc(-c3cn(CCCCN4CCCCC4)c4ccc(F)cc34)n2)c2cccnc21
SF-295 CNS
  GI50: 1.63 µM
  TGI: 3.05 µM
NCI-H226 lung
  GI50: 1.68 µM
  TGI: 3.38 µM
BT-549 breast
  GI50: 1.67 µM
  TGI: 3.13 µM
NCI-H460 lung
  GI50: 1.9 µM
  TGI: 3.52 µM
DU-145 prostate
  GI50: 1.76 µM
  TGI: 3.14 µM
HOP-62 NSCLC
  GI50: 14 µM
  TGI: 31.1 µM
UACC-257 melanoma
  GI50: 1.7 µM
  TGI: 3.25 µM
OVCAR-4 ovarian
  GI50: 1.59 µM
  TGI: 2.94 µM
A549 NSCLC
  GI50: 1.67 µM
  TGI: 3.04 µM
HT29 colon
  GI50: 1.7 µM
  TGI: 3.16 µM
T-47D breast
  GI50: 15.7 µM
  TGI: 41.4 µM
SK-MEL-2 melanoma
  GI50: 2.3 µM
  TGI: 5.98 µM
MDA-MB-435
  GI50: 1.52 µM
  TGI: 2.84 µM
NCI-H23 lung
  GI50: 1.69 µM
  TGI: 3.2 µM
RXF 393 renal
  GI50: 1.52 µM
  TGI: 3.04 µM
SW-620 colon
  GI50: 1.83 µM
  TGI: 3.44 µM
HOP-92 NSCLC
  GI50: 4.81 µM
  TGI: 27.8 µM
OVCAR-3 ovarian
  GI50: 1.77 µM
  TGI: 3.17 µM
786-0 renal
  GI50: 1.65 µM
  TGI: 3.02 µM
TK-10 renal
  GI50: 1.58 µM
  TGI: 2.92 µM
HS 578T breast
  GI50: 12.4 µM
  TGI: 53.8 µM
SF-268 CNS
  GI50: 1.68 µM
  TGI: 3.32 µM
HCT-15 colon
  GI50: 1.7 µM
  TGI: 3.06 µM
SK-OV-3 ovarian
  GI50: 16.2 µM
  TGI: 32.7 µM
OVCAR-5 ovarian
  GI50: 2.86 µM
  TGI: 11.3 µM
HCC-2998 colon
  GI50: 1.59 µM
  TGI: 3.08 µM
A498 renal
  GI50: 1.6 µM
  TGI: 3.28 µM

## C#CC[C@@H]1C[C@]2(C)[C@H]3CC=C4[C@H]5[C@@H](C)[C@H](C)CC[C@]5(C(=O)NCCCN5CCN(CCCN)CC5)CC[C@@]4(C)[C@]3(C)CC[C@H]2C(C)(C)[C@H]1OC(C)=O
OVCAR-5 ovarian
  GI50: 1.61 µM
  TGI: 3.02 µM

## CC1SC2(CCC(c3ccccc3)CC2)N(NC(=O)c2[nH]c3ccc(F)cc3c2-c2ccccc2)C1=O (stereo not drawn)
UO-31 renal
  GI50: 6.48 µM
  TGI: 33.1 µM
SF-295 CNS
  GI50: 12.1 µM
  TGI: 69 µM
KM12 colon
  GI50: 2.32 µM
  TGI: 6.91 µM
NCI-H226 lung
  GI50: 11 µM
  TGI: 29.8 µM
BT-549 breast
  GI50: 5.45 µM
  TGI: 34.6 µM
CAKI-1 renal
  GI50: 4.38 µM
  TGI: 24.5 µM
M14 melanoma
  GI50: 5.67 µM
  TGI: 21.9 µM
SN12C renal
  GI50: 3.56 µM
  TGI: 12.7 µM
NCI-H460 lung
  GI50: 4.28 µM
  TGI: 40.2 µM
DU-145 prostate
  GI50: 4.33 µM
  TGI: 17.8 µM
COLO 205 colon
  GI50: 2.96 µM
  TGI: 10.5 µM
HOP-62 NSCLC
  GI50: 4.59 µM
  TGI: 23.5 µM
IGROV1 ovarian
  GI50: 3.89 µM
  TGI: 20 µM
ACHN renal
  GI50: 3.4 µM
  TGI: 14.9 µM
RPMI-8226 leukemia
  GI50: 0.804 µM
  TGI: 2.91 µM
UACC-257 melanoma
  GI50: 19 µM
  TGI: 53.9 µM
OVCAR-4 ovarian
  GI50: 3.87 µM
  TGI: 18.3 µM
A549 NSCLC
  GI50: 7.72 µM
  TGI: 46.8 µM
HT29 colon
  GI50: 1.67 µM
  TGI: 4.18 µM
HCT-116 colon
  GI50: 1.94 µM
  TGI: 4.56 µM
T-47D breast
  GI50: 14.2 µM
  TGI: > 100 µM
SK-MEL-2 melanoma
  GI50: 14 µM
  TGI: 38.6 µM
MDA-MB-435
  GI50: 6.11 µM
  TGI: 39.3 µM
NCI-H23 lung
  GI50: 4.4 µM
  TGI: 19 µM
SF-539 CNS
  GI50: 20 µM
  TGI: 49.3 µM
RXF 393 renal
  GI50: 2.22 µM
  TGI: 7.49 µM
SW-620 colon
  GI50: 6.57 µM
  TGI: > 100 µM
HOP-92 NSCLC
  GI50: 1.33 µM
  TGI: 3.65 µM
MCF7 breast
  GI50: 4.78 µM
  TGI: 24.1 µM
OVCAR-3 ovarian
  GI50: 4.33 µM
  TGI: 53.8 µM
CCRF-CEM leukemia
  GI50: 1.59 µM
  TGI: 13.4 µM
PC-3 prostate
  GI50: 1.56 µM
  TGI: 5.34 µM
786-0 renal
  GI50: 2.92 µM
  TGI: 12.2 µM
K-562 leukemia
  GI50: 2.11 µM
  TGI: 6.1 µM
TK-10 renal
  GI50: 7.57 µM
  TGI: > 100 µM
SK-MEL-28 melanoma
  GI50: 5.34 µM
  TGI: 18.1 µM
UACC-62 melanoma
  GI50: 6.21 µM
  TGI: 27.4 µM
HS 578T breast
  GI50: 12 µM
  TGI: 68.3 µM
SF-268 CNS
  GI50: 21.2 µM
  TGI: > 100 µM
OVCAR-8 ovarian
  GI50: 2.87 µM
  TGI: 19 µM
U251 CNS
  GI50: 4.09 µM
  TGI: 24 µM
EKVX NSCLC
  GI50: 12.4 µM
  TGI: 54.2 µM
HCT-15 colon
  GI50: 2.43 µM
  TGI: 11.1 µM
SK-OV-3 ovarian
  GI50: 54.3 µM
  TGI: > 100 µM
MDA-MB-231 breast
  GI50: 14.8 µM
  TGI: 44 µM
HL-60(TB) leukemia
  GI50: 1.31 µM
  TGI: 4.53 µM
OVCAR-5 ovarian
  GI50: 18.5 µM
  TGI: 43.8 µM
HCC-2998 colon
  GI50: 2.51 µM
  TGI: 7.05 µM
NCI/ADR-RES ovarian
  GI50: 3.58 µM
  TGI: 23.4 µM
SNB-75 CNS
  GI50: 19.4 µM
  TGI: 42.2 µM
NCI-H522 lung
  GI50: 7.21 µM
  TGI: 24.6 µM
LOX IMVI melanoma
  GI50: 2.9 µM
  TGI: 14 µM
A498 renal
  GI50: 13 µM
  TGI: 28.2 µM
MALME-3M melanoma
  GI50: 16 µM
  TGI: 49.8 µM
SNB-19 CNS
  GI50: 26.6 µM
  TGI: > 100 µM
SK-MEL-5 melanoma
  GI50: 3.85 µM
  TGI: 21.6 µM

Source: PubChem BioAssay (NCI)
